Source: patent US9567642B2, “Methods and products related to targeted cancer therapy” (Massachusetts Institute of Technology, priority 2012, dated 2017)

Assays:
[1] = system: p53 wild type or p53 mutant cells; test: Q-RT-PCR of doxorubicin induced p21 and CD80 mRNA; format: cell-based, human; conditions: set of p53 wild type or p53 mutant cells, FIG. 14
Method: Tumors were isolated from Kras^LA2/+; Trp53^LSL/LSL; Rosa26^CreERT2 animals, dissociated with collagenase and trypsin for one hour at 37° C., and then grown in DME plus 10% fetal bovine serum. Human cell lines were obtained from American Type Culture Collection and grown per manufacturer recommendations.
RNA was isolated from cultured cells with Trizol reagent following manufacturer protocol. Complementary DNA was generated from 1 μg total RNA using High Capacity RT-PCR Kit (Roche, quantitative PCR (Q-RT-PCR)) following manufacturer protocol. Total cDNA was diluted 20 fold in H2O and 10 μL was used in a SYBR green quantitative PCR reaction. Specifically, specific primers were diluted from 100 μM stocks to a final concentration of 0.25 μM into JumpStart Ready Taq SYBR green (Sigma) and 10 μL was mixed with 10 μL diluted cDNA and cycled 40 times with the following cycling parameters on a Step One Plus (Applied Biosystems) real-time thermocycler: […]

[2] = system: CD80 cell surface expression; test: Flow cytometry of CD80 cell surface expression; format: cell-based, mouse; conditions: cells untreated, treated with tamoxifen, AdFlpO or AdCre; FIG. 11
Method: Tumors were isolated from Kras^LA2/+; Trp53^LSL/LSL; Rosa26^CreERT2 animals, dissociated with collagenase and trypsin for one hour at 37° C., and then grown in DME plus 10% fetal bovine serum. Human cell lines were obtained from American Type Culture Collection and grown per manufacturer recommendations. Cells were harvested from plasticware using 2 mM EDTA solution. Approximately 1 […] cells were resuspended in % FBS in PBS and incubated with APC conjugated CD80 Ab at a 1:100 dilution (Hamster IgG2 Clone:16-10A1 from BD Biosciences). Cells were scanner on a FASCaliber flow cytometer (BD Biosciences).

## COc1cccc2c1C(=O)c1c(O)c3c(c(O)c1C2=O)C[C@@](O)(C(=O)CO)C[C@@H]3O[C@H]1C[C@H](N)[C@H](O)[C@H](C)O1 [doxorubicin]
[1]
  induction of p21 as measured by Q-RT-PCR: induced
[1]; induction of human CD80 mirrors p21 induction
  induction of CD80 as measured by Q-RT-PCR: induced

## CC/C(=C(\c1ccccc1)c1ccc(OCCN(C)C)cc1)c1ccccc1 [tamoxifen]
[2]
  CD80 cell surface expression (flow cytometry histograms): not tamoxifen dependent
